Source: patent US7700553B2, “Selective inhibition of NF-κB activation by peptides designed to disrupt nemo oligomerization” (priority 2003, dated 2010)
Each block holds one substance with its values, some of them ahead of it. Ends that are not written are not given here. BODIPY = not defined here

What was measured:
[1] = test system: LPS-induced NF-κB activation in 70Z/3-C3 cells; experiment: NF-κB inhibition assay, first procedure (NF-κB dependent β-galactosidase reporter, LPS stimulation); format: cell-based, murine; conditions: 20 μM peptide; for effect on LPS-induced NF-κB activation (in words): 2 h, then 5 h LPS
Description: The resulting cell line, 70Z3-C3, was incubated for 2 hours in the absence or in the presence of 20 μM of antennapedia peptide (Ant), or BODIPY-labeled antennapedia peptide (BODIPY-Ant), or BODIPY-labeled antennapedia peptide coupled to CC2 (BODIPY-Ant-CC2) or LZ (BODIPY-Ant-LZ) peptides, After peptide internalization, cells were treated for 5 hours with LPS (3 μg/ml, (+) in left panel) or untreated (right panel and (−) in left panel) and the NF-κB activity was measured by β-galactosidase assay. […] Cells were treated as in (A) but with different concentration of peptide as indicated. The potential of each peptide to inhibit LPS-induced NF-κB activation was measured by determining the IC50 value that correspond to 50% inhibition of LPS-induced NF-κB activation as compared to the control (no peptide) (C). […] Control (no peptide) or CC2, or LZ peptides, with (BODIPY-ANT-CC2, BODIPY-ANT-LZ) or without the antennapedia sequence at the N-terminus (CC2, LZ) were incubated for 2 hours with 70Z3-C3 cells followed with (+) or without (−) the LPS-treatment for 3 hours. NF-κB activity was then measured by β-galactosidase assay.
In a first procedure 2.2×10^5 70Z/3-C3 cells in 220 μl of RPMI 1640 supplemented with 10% fetal calf serum (FCS) and 50 μM β-mercaptoethanol were placed in a 96-well plate and incubated with various concentrations of peptide (0 to 20 μM) at 37° C. in 5% CO2 incubator. After two hours an equal portion (100 μl) of each cell sample transferred in two wells containing each 10^5 cells. One aliquot of cells was then treated for 5 hours with lipopolysaccharides from Salmonella abortus (Sigma) at 0.5 μg/ml final concentration, and the other one left-treated. After 5 hours, cells were centrifuged at 400×g for 5 min at room temperature and the cell pellets were washed three times with cold PBS (250 μl) by centrifugation. Cells were then lysed in the lysis buffer (25 mM tris-phosphate buffer at pH 7.8 containing 8 mM magnesium chloride, 1 mM dithioerythreitol, 1% Triton X-100, 15% glycerol and a protease inhibitor mixture (Roche)), and samples were centrifuged at 4° C. for 20 min to clarify the lysate. The supernatant was then kept on ice, and 30 μl was then assayed to measure the β-galactosidase activity with a plate luminometer (Berthold) using the galacton-star as chemiluminescent substrate (BD Biosciences Clontech, Bronstein et al., 1989). Background of reaction was measured by mixing for 1 hour 30 μl of lysis buffer with the reaction buffer (196 μl) and the galacton-star substrate (4 μl) provided by BD Biosciences.

[2] = target: T1, CC2 peptide composing the minimal oligomerization domain of NEMO (Mus musculus, UniProt O88522); experiment: Fluorescence anisotropy titration with CC2 peptide; format: binding, murine; conditions: in vitro, fluorescence polarization
T1 construct: SKGMQLEDLRQQLQQAEEA; made in house; host or cells: chemical solid-phase peptide synthesis (Fmoc/tBu), not expressed
T1 sequence (O88522 248-287): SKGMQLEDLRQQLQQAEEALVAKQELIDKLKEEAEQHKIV
Description: FIG. 7: Association of Ant-CC2 and Ant-LZ Peptides to the CC2 Peptide (A) Direct titration of BODIPY-Ant-CC2 (1 μM) with CC2 by fluorescence anitropy. The concentration of CC2 was determined by amino acid analysis. Anisotropy values of BODIPY-Ant-CC2 in milliunits (mA) were plotted against an increasing concentration of the CC2 peptide. […] The two dashed lines represent a stoichiometric titration and intersect at an CC2 concentration of […]. Given the 1 μM concentration of the BODIPY-Ant-CC2, this gives a complex stoechiometrie of 0.8. (B) Direct titration of BODIPY-Ant-LZ (0.1 μM with CC2 by fluorescence anitropy. The anisotropy values of the BODIPY-Ant-LZ alone (white bar) or in the presence of the CC2 peptide (30 μM, grey bar; 100 μM, black bar) are given in milliunits (mA).
Anisotropy measurements were performed with a PTI Quantamaster fluorometer equipped with polarizers for the excitation and emission beams. This instrument uses a PMT in the L-configuration. […] Steady-state fluorescence anisotropy was expressed as millianisotropy (mA) and was calculated according to the equations: (1) A=(IVV−GIVH)/(IVV+2GIVH); (2) G=IHV/IHH; where A is anisotropy, G is a correction factor for wavelength-dependent distortion and I is the fluorescence intensity component (subscript referring to the vertical and horizontal positioning at the excitation and emission polarizers, respectively). […]

[3] = test system: LPS-induced NF-κB activation in 70Z/3-C3 cells; experiment: NF-κB inhibition assay, second more stringent procedure (peptide washed out, 24 h growth before LPS); format: cell-based, murine; conditions: 10 μM peptide
Text: FIG. 4: Specific Inhibition of NF-κB Activation in Response to LPS Depends on a Few Mutations in the Hydrophobic Core of CC2 and LZ Coiled-Coils Left panels show a helical wheel diagram of CC2 (A) and LZ (B) peptides. The view is from the top the molecule. The (a) through (g) positions, which are an essential feature of coiled coil sequence (Vinson, 2002, Mol. Cell. Biol.) represent sequential positions in each peptide sequence. The first (a) and fourth (d) positions that are generally occupied by hydrophobic amino acids constitute the hydrophobic core for parallel as well as antiparallel-coiled coils. […] NF-κB activity was measured using the β-galactosidase assay. […]
FIG. 5: Inhibition of NF-κB Activation by the LZ Peptide Occurs Through the Formation of Specific Coiled-Coil Strands. […] NF-κB activity was measured using the β-galactosidase assay. […]

binding to the CC2 peptide (in words) [2]: binds in vitro to the CC2 peptide
Substance: B-CRQIKIWFQNRRMKWKKLKAQADIYKADFQAERHAREKLVEKKEYLQEQLEQLQREFNKL (C(BODIPY)RQIKIWFQNRRMKWKKLKAQADIYKADFQAERHAREKLVEKKEYLQEQLEQLQREFNKL-NH2; not fully specified (N-terminus); reading uncertain) [BODIPY-Ant-LZ (WT)]
effect on LPS-induced NF-κB activation (in words) [1]: decreased significantly the NF-κB activation
effect on LPS-induced NF-κB activation (in words) ([1]; listed as “Leucine zipper” peptide): completely eliminates cell response
basal NF-κB activity in the absence of LPS (in words) ([1]; no LPS): without affecting the intrinsic basal NF-κB activity

Substance: B-CRQIKIWFQNRRMKWKKLKAQADIYKADFQAERHAREKLVEKKEYSQEQLEQSQREFNKL (C(BODIPY)RQIKIWFQNRRMKWKKLKAQADIYKADFQAERHAREKLVEKKEYSQEQLEQSQREFNKL-NH2; not fully specified (N-terminus); printed as B-CRQIKIWFQNRRMKWKKLKAQADIYKADFQAERHAREKLVEKKEYSQEQLEQSQREFNKL; reading uncertain) [BODIPY-Ant-LZ (Mu)]
inhibition of LPS-induced NF-κB activation compared to the control [3]: 15%

Substance: B-CRQIKIWFQNRRMKWKKSKGMQLEDLRQQGQQAEEAGVAKQELGDKLKEEAEQHKIV (C(BODIPY)RQIKIWFQNRRMKWKKSKGMQLEDLRQQGQQAEEAGVAKQELGDKLKEEAEQHKIV-NH2; not fully specified (N-terminus); printed as B-CRQIKIWFQNRRMKWKKSKGMQLEDLRQQGQQAEEAGVAKQELGDKLKEEAEQHKIV; reading uncertain) [BODIPY-Ant-CC2 (Mu)]
effect on LPS-induced NF-κB activation (in words) [3]: did not affect the NF-κB activation
